Measured values as given in the Biogen ADME set (Fang et al. 2023).
Values after ≈ are worked out from the molar mass of the structure shown.

Conditions: for aqueous solubility: pH 6.8

MDR1-MDCK efflux ratio | intrinsic clearance, human liver microsomes [mL/min/kg] | intrinsic clearance, rat liver microsomes [mL/min/kg] | aqueous solubility [µg/mL] | fraction unbound, human plasma | fraction unbound, rat plasma | SMILES
1.99 | ≤ 4.74 | ≤ 10.7 | 36.5 (≈ 142 µM) |  |  | CCc1cc(N(C)Cc2ccc(N)nc2)nc(C)n1
0.442 | 73.8 | 429 | 2.61 (≈ 8.6 µM) |  |  | COCc1ccccc1CNc1ccc2cc(C#N)ccc2n1
0.236 | 97.4 | 593 | 11.6 (≈ 36.5 µM) |  |  | O=C(CCc1ccc2c(c1)OCO2)Nc1nc2c(s1)CCC2
3.79 | 35.6 | 2700 |  |  |  | Cc1c[nH]c(CNCc2ccccc2CC(C)C)n1
0.559 | 237 | 556 |  |  |  | CCOc1cccc(-c2cccc(N)n2)c1
0.833 |  |  | 0.16 (≈ 0.551 µM) |  |  | Cc1ccc2c(c1)c1nc3ccccc3nc1n2CC(N)=O
2.68 | 38.1 | 2820 | 10 (≈ 25.7 µM) |  |  | COc1cccc(NC(=O)[C@H]2CCCN(S(=O)(=O)c3ccc(C)cc3)C2)c1
1.52 | 6.77 | 78.8 | 62.3 (≈ 178 µM) |  |  | O=C(c1ccccc1)N1CCN2C(=O)N(Cc3ccccc3)C(=O)[C@H]2C1
0.597 | 75.4 | 93.7 | 36.7 (≈ 157 µM) |  |  | Cc1oc(C)c(C(=O)Nc2ccn(C)n2)c1C
 | 14.7 | 17.1 |  |  |  | NC1(c2ccc(-c3nc4ccn5c(=O)[nH]nc5c4cc3-c3ccccc3)cc2)CCC1
 | 5.69 | 48.9 |  |  |  | Cc1noc(CC2CCN(Cc3cccnc3)CC2)n1
28.5 | 14.7 | 379 | 55.7 (≈ 167 µM) |  |  | Cc1nc2cc(-c3nccn3C)nn2c(NCc2cccnc2)c1C
1.09 | 107 | 443 | 41.7 (≈ 139 µM) |  |  | c1ccc(CCc2n[nH]c(-c3cccc4cnccc34)n2)cc1
0.524 | 56.1 | 204 | 52.7 (≈ 193 µM) |  |  | Cc1ccc(OCc2noc(-c3ccsc3)n2)cn1
11.3 | ≤ 4.74 | ≤ 10.7 | 45.2 (≈ 152 µM) |  |  | O=C(CCN1C(=O)CCC1=O)Nc1cccc2ncccc12
28 | 76.7 | 557 | 4 (≈ 9.1 µM) |  |  | C=CCNC(=O)C1(Cc2ccc(-c3ccccc3)cc2)CCN(C(=O)c2cccnc2)CC1
 | 10.8 | 80.8 |  |  |  | c1csc(Cc2nc(-c3cnccn3)no2)c1
8.31 | ≤ 4.74 | 291 | 46.1 (≈ 126 µM) |  |  | Cc1cc(C(=O)NCCC2=CSC3=NCCCN23)c2cccc(C)c2n1

Continued, compound first:

SMILES | MDR1-MDCK efflux ratio | intrinsic clearance, human liver microsomes [mL/min/kg] | intrinsic clearance, rat liver microsomes [mL/min/kg] | aqueous solubility [µg/mL] | fraction unbound, human plasma | fraction unbound, rat plasma
CC(C)c1nnc(CN(C(C)C)C2CCOCC2)o1 | 0.93 | 6.75 | 220 |  |  | 
O=C(c1sc(N2CCOCC2)nc1-c1ccccc1)N1CCCCC1 | 1.18 | 45 | 845 | 58.4 (≈ 163 µM) |  | 
N#Cc1ccccc1N1CCC(N)CC1 | 0.562 | 22.1 | 2210 | 54.7 (≈ 272 µM) |  | 
Cc1nc2n(c1CN1CCN(c3ncccn3)CC1)CCCC2 | 7.45 | 29.1 | 1180 |  |  | 
CC(C)Cn1c(=O)[nH]c(=O)c2c1nc1n2CCCCC1 | 3.54 | 7.18 | 28.2 | 62.7 (≈ 227 µM) |  | 
N#Cc1ccsc1NC(=O)c1ccccn1 |  |  |  | 5.91 (≈ 25.8 µM) |  | 
CC(C)OCCS(=O)(=O)N1CCc2ccccc2CC1 | 0.666 | 134 | 3140 |  |  | 
Fc1cccc(Cl)c1CNCCc1c[nH]c2ccccc12 | 0.457 | 298 | 2150 | 48.3 (≈ 159 µM) |  | 
Cc1cc(C)nc(N2Cc3ccccc3C2=N)n1 | 0.807 | 24.6 | 1160 |  |  | 
Cc1cc(NC(=O)CN(C)c2c(F)cccc2F)on1 |  |  |  | 69.4 (≈ 247 µM) |  | 
CC(C)(C)C(=O)N1CCN(C(=O)CCN2CCOC2=O)CC1 | 64.9 | ≤ 4.74 | ≤ 10.7 | 62.7 (≈ 201 µM) |  | 
Cc1cc(C)n(-c2ccc(CNC(=O)c3ccc4c(c3)CCO4)cn2)n1 | 0.769 | 11.4 | 106 | 3.86 (≈ 11.1 µM) |  | 
O=C(NCCCn1ccnc1)N1CC2(CCCC2)c2ccccc21 |  | 68.9 | 747 | 63.1 (≈ 194 µM) |  | 
CN1CCN(S(=O)(=O)c2ccc(-c3cnc(N)c(C(=O)Nc4cccnc4)n3)cc2)CC1 | 72.4 | 124 | 672 |  | 0.12 | 0.0823
CN1CCN(Cc2noc(Cc3ccccc3)n2)c2ccccc21 | 0.641 | 341 | 2000 | 14.1 (≈ 44 µM) |  | 
O=C(CCc1ccc2c(c1)OCO2)Nc1cccc2cnccc12 | 1.01 | 41.9 | 300 | 44.7 (≈ 140 µM) |  | 
Cc1ccc(-n2nc(C(C)(C)C)cc2NC(=O)NCc2cc(F)ccc2Oc2ccc3c(cnn3CCO)c2)cc1 | 16.2 |  |  | 0.2 (≈ 0.359 µM) |  | 
NCCn1cc(NC(=O)c2ccccc2)cn1 |  | ≤ 4.74 | ≤ 10.7 | 79.1 (≈ 343 µM) |  | 
CCCNC(=O)C1(NCc2cncnc2)CCCCC1 | 7.46 | 43.2 | 127 |  |  | 
COCCN(C)c1ccc(CN2CCc3nn(C)c(=O)cc3C2)cn1 | 3.02 | ≤ 4.74 | 22 |  |  | 

SMILES | MDR1-MDCK efflux ratio | intrinsic clearance, human liver microsomes [mL/min/kg] | intrinsic clearance, rat liver microsomes [mL/min/kg] | aqueous solubility [µg/mL] | fraction unbound, human plasma | fraction unbound, rat plasma
Cc1cc(C(=O)N(C)c2nc3ccccc3s2)cc(O)n1 | 4 | ≤ 4.74 | 16.1 |  |  | 
Cc1ccc(CNc2cncc(-n3nc(C)cc3C)n2)cn1 |  | 23.4 | 252 |  |  | 
O=C(O)c1c2ccccc2nn1Cc1ccccc1 | 1.62 | ≤ 4.74 | ≤ 10.7 | 37.2 (≈ 147 µM) |  | 
Cc1ccnc(C2CCN(C3CCCC3)CC2)n1 | 1.12 | ≤ 4.74 | 848 | 16.1 (≈ 65.5 µM) |  | 
Cn1c(=O)n(Cc2cccc(OC(F)F)c2)c2cnccc21 | 1.34 | 10.4 | 209 | 49.1 (≈ 161 µM) |  | 
CSc1cnc(N2CCCN(c3ncc(SC)cn3)CC2)nc1 | 0.648 | 131 | 1850 |  |  | 
COc1cc2cc(N)c(C3CCN(C(=O)C(C)(C)C)CC3)nc2cc1OC | 5.8 | 7.04 | 43.5 | 53 (≈ 143 µM) |  | 
O=C([C@H]1CCCN(Cc2ccc(Cl)cc2)C1)N1CCc2ccccc2C1 | 0.788 | 251 | 3840 | 43.2 (≈ 117 µM) |  | 
Cc1ccc(C(=O)N2CCN(C(=O)NCC(=O)N3CCCC3)CC2)cc1F | 60.6 | ≤ 4.74 | 22.3 | 75.6 (≈ 201 µM) |  | 
O=C(NCc1cnn2cccnc12)c1ccccc1-n1cnnc1 | 4.87 | ≤ 4.74 | ≤ 10.7 |  |  | 
CN(C)[C@@H]1CN(C(=O)COc2ccccc2)C[C@H]1O |  | ≤ 4.74 | 17.6 | 83.3 (≈ 315 µM) |  | 
COc1ccccc1C(=O)NCc1nc(C)cc(N2CCCCC2)n1 | 0.243 | 96.3 | 1050 | 67 (≈ 197 µM) |  | 
COCC1(CNC(=O)c2ccc(-n3cccn3)cc2)CCC1 | 0.596 | 18.2 | 492 |  |  | 
c1ccc(COc2ccc(CNCC3CCNCC3)cc2)cc1 | 4.9 | ≤ 4.74 | 21.1 | 25.2 (≈ 81.2 µM) |  | 
Clc1ccc(Cc2nc(-c3ccccc3)n[nH]2)cn1 | 1.52 | 40.9 | 66.8 | 20.1 (≈ 74.2 µM) |  | 
N#Cc1cccnc1NCCc1cn2c(n1)CCCC2 | 1.33 | 11.5 | 2440 | 52.4 (≈ 196 µM) |  | 
CCn1ccc2cc(C(=O)N3CCN(c4ccc(C)cc4)C(=O)C3)ccc21 | 2.47 | 12 | 260 | 45.7 (≈ 127 µM) |  | 
CCc1cc2c(Nc3cnn(CC)c3)ncnc2s1 |  | 40.7 | 102 | 43 (≈ 157 µM) |  | 
O=C(O)c1cc(/N=N/c2ccc(S(=O)(=O)Nc3ccccn3)cc2)ccc1O | 0.459 | ≤ 4.74 | 50.5 | 54.5 (≈ 137 µM) |  | 
